This note sets out measurements from patent publication US20170313665A1, “HYDROXYALKYL-SUBSTITUTED PHENYLTRIAZOLE DERIVATIVES AND USES THEREOF” (BAYER PHARMA AKTIENGESELLSCHAFT, priority 2014, published 2017).

For orientation: IC50 means the concentration needed to halve the response being measured.

SMILES strings stand for the structures.

The test system of experiment [1] is Wistar rats. As to the kind of experiment: Diuresis investigations in conscious rats kept in metabolism cages. In kind it is in vivo, rat. As to the method:
Wistar rats (220-450 g body weight) are kept with free access to feed (Altromin) and drinking water. During the experiment, the animals are kept with free access to drinking water for 4 to 8 or up to 24 hours individually in metabolism cages suitable for rats of this weight class (Tecniplast Deutschland GmbH, D-82383 Hohenpeiβenberg). At the beginning of the experiment, the animals are administered the test substance in a volume of 1 to 3 ml/kg body weight of a suitable solvent by means of gavage into the stomach. Control animals only receive solvent. Controls and substance tests are carried out in parallel on the same day. Control groups and substance-dose groups each consist of 4 to 8 animals. During the experiment, the urine excreted by the animals is collected continuously in a receiver at the base of the cage. The volume of urine per time unit is determined separately for each animal, and the concentration of urinary electrolytes is measured by standard methods of flame photometry. Before the beginning of the experiment, the body weight of the individual animals is determined.

Experiment [2] concerns the target T1, human V1a receptor (Homo sapiens, UniProt P37288).
T1 construct: expressed in transfected cells; host or cells: CHO K1 (ATCC), also stably transfected with a modified aequorin
As to the kind of experiment: Cellular in vitro assay for vasopressin receptor activity, V1a receptor cell line (aequorin luminescence). In kind it is cell-based. To be noted: CHO cell line transfected with human V1a receptor; [Arg8]-vasopressin at EC50; read-out: IC50 hV1a. As to the method: The identification of agonists and antagonists of the V1a and V2 vasopressin receptors from humans, rats and dogs as well as the quantification of the activity of the compounds of the invention is carried out using recombinant cell lines. These cell lines originally derive from a hamster's ovary epithelial cell (Chinese Hamster Ovary, CHO K1, ATCC: American Type Culture Collection, Manassas, Va. 20108, USA). The test cell lines constitutively express the human, rat or dog V1a or V2 receptors. […] The resulting vasopressin receptor cells react to stimulation of the recombinantly expressed V1a receptors by intracellular release of calcium ions, which can be quantified by the resulting photoprotein luminescence. […] The bioluminescence of the cell lines is detected using a suitable luminometer [Milligan G, Marshall F, Rees S, Trends in Pharmacological Sciences 17, 235-237 (1996)].
On the day before the assay, the cells are plated out in culture medium (DMEM/F12, 2% FCS, 2 mM glutamine, 10 mM HEPES, 5 μg/ml coelenterazine) in 384-well microtiter plates and kept in a cell incubator (96% humidity, 5% v/v CO2, 37° C.). […] The resulting light signal is measured immediately in the luminometer. […]

Setting [3] is: dosage p.o. 0.3 mg/kg, 0.3 mg/kg.

T1 sequence (P37288 whole entry): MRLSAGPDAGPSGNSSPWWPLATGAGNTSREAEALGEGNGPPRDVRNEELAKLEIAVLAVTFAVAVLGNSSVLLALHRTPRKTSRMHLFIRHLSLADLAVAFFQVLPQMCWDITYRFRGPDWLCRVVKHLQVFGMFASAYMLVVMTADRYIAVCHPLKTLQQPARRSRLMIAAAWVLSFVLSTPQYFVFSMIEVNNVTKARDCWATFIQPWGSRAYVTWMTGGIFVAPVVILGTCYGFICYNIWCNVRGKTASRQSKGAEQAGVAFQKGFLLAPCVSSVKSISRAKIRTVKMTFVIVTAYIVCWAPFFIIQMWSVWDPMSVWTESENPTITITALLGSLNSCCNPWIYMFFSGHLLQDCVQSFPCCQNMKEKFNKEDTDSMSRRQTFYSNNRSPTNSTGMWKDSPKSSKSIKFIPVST

For `C[C@@H](O)c1nc(Cn2nc(-c3ccc(Cl)cc3)n(C[C@H](O)C(F)(F)F)c2=O)nn1-c1ccccc1Cl` [Example 83, 5-(4-Chlorophenyl)-2-({1-(2-chlorophenyl)-5-[(1R)-1-hydroxyethyl]-1H-1,2,4-triazol-3-yl}-methyl)-4-[(2S)-3,3,3-trifluoro-2-hydroxypropyl]-2,4-dihydro-3H-1,2,4-triazol-3-one], the “Urinary volume [% vs. control = 100%]” value in experiment [1] (dosage p.o. 3.0 mg/kg) is 1094 % vs. control = 100%.
For the molecule `COc1ccccc1-n1nc(Cn2nc(-c3ccc(Cl)cc3)n(C[C@H](O)C(F)(F)F)c2=O)nc1C(C)O` (single isomer, unassigned) [Example 11], the “Urinary volume [% vs. control = 100%]” value amounted to 159 % vs. control = 100% in experiment [1] (setting [3]) and 443 % vs. control = 100% in experiment [1] (dosage p.o. 3.0 mg/kg, 3 mg/kg).
In the case of `CC(O)c1nc(Cn2nc(-c3ccc(Cl)cc3)n(C[C@H](O)C(F)(F)F)c2=O)nn1-c1cc(F)cc(Cl)c1` (single isomer, unassigned) [Example 15], the “Urinary volume [% vs. control = 100%]” value in experiment [1] (dosage p.o. 0.3 mg/kg) worked out at 412 % vs. control = 100%; in experiment [1] (dosage p.o. 3.0 mg/kg), 1085 % vs. control = 100%.
For the molecule `C[C@H](O)c1nc(Cn2nc(-c3ccc(Cl)cc3)n(C[C@H](O)C(F)(F)F)c2=O)nn1-c1cccc(Cl)c1` [Example 79, 5-(4-Chlorophenyl)-2-({1-(3-chlorophenyl)-5-[(1S)-1-hydroxyethyl]-1H-1,2,4-triazol-3-yl}methyl)-4-[(2S)-3,3,3-trifluoro-2-hydroxypropyl]-2,4-dihydro-3H-1,2,4-triazol-3-one], the “Urinary volume [% vs. control = 100%]” value in experiment [1] (dosage p.o. 3.0 mg/kg) worked out at 1312 % vs. control = 100%.
As to `CC(O)c1nc(Cn2nc(-c3ccc(Cl)cc3)n(C[C@H](O)C(F)(F)F)c2=O)nn1-c1cc(F)ccc1Cl` (single isomer, unassigned) [Example 60], in experiment [2], the IC50 was determined as 0.5 nM.
For `COc1ccccc1-n1nc(Cn2nc(-c3ccc(Cl)cc3)n(C[C@H](O)C(F)(F)F)c2=O)nc1C(C)O` (single isomer, unassigned) [Example 12], the “Urinary volume [% vs. control = 100%]” value came to 96 % vs. control = 100% in experiment [1] (setting [3]) and 323 % vs. control = 100% in experiment [1] (dosage p.o. 3.0 mg/kg, 3 mg/kg).
Regarding `CC(O)c1nc(Cn2nc(-c3ccc(Cl)cc3)n(C[C@H](O)C(F)(F)F)c2=O)nn1-c1cc(F)cc(Cl)c1` (single isomer, unassigned) [Example 14], in experiment [1] (dosage p.o. 1.0 mg/kg), the “Urinary volume [% vs. control = 100%]” value amounted to 753 % vs. control = 100%.
Turning to `CC(O)c1nc(Cn2nc(-c3ccc(Cl)cc3)n(C[C@H](O)C(F)(F)F)c2=O)nn1-c1cc(F)ccc1Cl` (single isomer, unassigned) [Example 59], the IC50 in experiment [2] was 0.5 nM.
Turning to `C[C@H](O)c1nc(Cn2nc(-c3ccc(Cl)cc3)n(C[C@H](O)C(F)(F)F)c2=O)nn1-c1cccc(F)c1` [Example 76, 5-(4-Chlorophenyl)-2-({1-(3-fluorophenyl)-5-[(1 S)-1-hydroxyethyl]-1H-1,2,4-triazol-3-yl}methyl)-4-[(2S)-3,3,3-trifluoro-2-hydroxypropyl]-2,4-dihydro-3H-1,2,4-triazol-3-one], the “Urinary volume [% vs. control = 100%]” value in experiment [1] (dosage p.o. 3.0 mg/kg) turned out to be 1257 % vs. control = 100%.
